Reference: patent US20110257146A1, “Method of Treating Kcnq Related Disorders Using Organozinc Compounds” (The johns Hopkins University, priority 2006, published 2011)

Legend:
[1] = molecular target: T1, Kv4.2 A-type potassium channel (Homo sapiens, UniProt Q9NZV8); assay: Channel activity in Kv4.2 stable line; type: cell-based
T1 construct: expressed in transfected cells
Protocol: Cell culture and transient transfection—Chinese Hamster Ovary (CHO) cells were grown in 50/50 DMEM/F12 (Cellgro) with 10% FBS (Gibco), 100 U/ml penicillin (Cellgro), 100 μg/ml streptomycin (Cellgro) and 2 mM L-glutamine (Gibco). At 24 hours before transfection, cells were split and plated in 60 mm dishes and were transfected with Lipofectamine2000™ reagent (Invitrogen) according to the manufacturer's instruction. At 24 hours after transfection, cells were split and re-plated onto coverslips coated with poly-L-lysine (Sigma). Plasmid expressing CD4 cDNA as a marker was cotransfected with the channel cDNAs of hKCNQ1 (from Dr. Michael Sanguinetti), hKCNQ4 (from Dr. Vitya Vardanyan), rKCNQ2, rKCNQ3, and hKCNQ5 (from Drs. David McKinnon, Mark Shapiro, and Thomas Jentsch). Prior to recording, anti-CD4 Dynabeads (Dynal. Biotech. Inc.) were added into the medium to allow for identification of the transfected cells. Stable lines expressing Kv2.1, hERG, and Kv4.2 were generated by standard protocols using pcDNA3.1 and maintained at complete medium supplemented with 500 μg/ml G418. […]
(§1) Electrophysiological Recording—Standard whole-cell recording was used. […] Current and voltage were recorded using an Axopatch-200A amplifier, filtered at 1 kHz and digitized using a DigiData 1322A with pClamp 9.2 software (Axon Instruments, Foster City, Calif.). […]

KCNQ2(L249A/L275A) = molecular target: T2, KCNQ2(L249A/L275A) (Rattus norvegicus, UniProt O88943, L249A/L275A); assay: Whole-cell recording of KCNQ2(L249A/L275A) mutant; type: cell-based
T2 construct: expressed in transfected cells
Source text: (§2) FIG. 9. KCNQ2 point mutants selectively lose ZnPy sensitivity. […] Each mutation site was indicated based on the predicted transmembrane regions. Dashed line indicates the potentiation level of wt KCNQ2 channel in the absence of ZnPy. […] C. Modeling of the S5-pore-S6 region of KCNQ2.
(§3) Mutagenesis—Starting from KCNQ cDNAs, the KCNQ2 point mutants were constructed by recombinant PCR and verified by sequencing.
(§4) Electrophysiological Recording—Standard whole-cell recording was used. Pipettes were pulled from borosilicate glass capillaries (TW150-4, World Precision Instruments, Sarasota, Fla.). When filled with the intracellular solution, the pipettes have resistances of […]. During the recording, constant perfusion of extracellular solution was maintained using a BPS perfusion system (ALA, Westbury, N.Y.). Pipette solution contained (mM): KCl 145, MgCl2 1, EGTA 5, HEPES 10, MgATP 5 (pH 7.3); extracellular solution contained (mM): NaCl 140, KCl 3, CaCl2 2, MgCl2 1.5, HEPES 10, glucose 10 (pH 7.4). Current and voltage were recorded using an Axopatch-200A amplifier, filtered at 1 kHz and digitized using a DigiData 1322A with pClamp 9.2 software (Axon Instruments, Foster City, Calif.). Series resistance compensation was also used and set to 60-80%.

KCNQ2 L249A = molecular target: T3, KCNQ2 L249A (Rattus norvegicus, UniProt O88943, L249A); assay: Whole-cell recording of KCNQ2 L249A mutant; type: cell-based
T3 construct: expressed in transfected cells
Source text: as §2, §3, §4

M-current = assay: Native M-current in isolated dorsal root ganglion neurons; type: cell-based, rat; conditions: 10 μM ZnPy
Protocol: (§5) FIG. 10. ZnPy potentiation of native M-current. A. M current recorded from an isolated rat dorsal root ganglion neuron, Vh was −60 mV, stepped to −20 mV, followed by a step to −50 mV, and stepped back to −20 mV. B. Histograms show M-current amplitudes in the presence and absence of 10 μM ZnPy (n=10, * p<0.001). M-current amplitudes were measured by fitting the IM relaxation with an exponential equation. The recording bath solution includes 1 μM TTX, 0.2 mM TEA, 1 mM 4-AP, 50 μM CNQX, and 10 μM bicuculline. C. Membrane potential of an isolated hippocampal neuron was monitored when 10 μM ZnPy was applied in bath solution followed by the addition of 15 μM linopirdine. D. Action potentials elicited by 200 pA current injection to a patched hippocampal neuron. The ZnPy treatments are as indicated.
Neuron Culture—Dorsal root ganglia (DRG) was collected from fourteen-day-old CD rat and incubated in collagenase (sigma, 500 U/ml, 15 min) and then trypsin (Sigma, 1 mg/ml, 30 min) at 37° C. Single DRG neurons were isolated by mechanical trituration with a fire-polished glass Pasteur pipette. […]
as §1

hippocampal neurons = assay: Membrane potential and elicited action potentials of isolated hippocampal neurons; type: cell-based, rat; conditions: 10 μM ZnPy
Protocol: as §5
Neuron Culture—Dorsal root ganglia (DRG) was collected from fourteen-day-old CD rat and incubated in collagenase (sigma, 500 U/ml, 15 min) and then trypsin (Sigma, 1 mg/ml, 30 min) at 37° C. Single DRG neurons were isolated by mechanical trituration with a fire-polished glass Pasteur pipette. Hippocampal tissue was dissected out from CD rat postnatal day 0. The tissue was digested with papain (Worthington Biochem, 20 U/ml, 30 min) and resuspended into single cells. The single-cell suspension was plated onto a monolayer of glial cells that were growing on coated cover slips. Cytosine-1-D-arabinofuranoside at 5 μM was added into the culture medium 24-48 hours later to arrest glial cell proliferation. The culture medium consisted of Neurobasal™ medium with B-27 supplement (Gibco), penicillin/streptomycin and 2 mM L-glutamine. All cells were maintained at 37° C. with 5% CO2 prior to recording.
as §1, with “used. Pipettes were pulled from borosilicate glass capillaries (TW150-4, World Precision Instruments, Sarasota, Fla.).” for “used.”

KCNQ2 = KCNQ2 (Rattus norvegicus, UniProt O88943); assay: Non-radioactive rubidium efflux assay (KCNQ2 screen, HEK 293); type: cell-based; parameters: expressed in transfected cells
Protocol: To identify compounds with agonistic activities for M currents, stable cell lines for both KCNQ2 and KCNQ2/3 were generated. Under a pre-calibrated condition of medium-level rubidium efflux responses, more than 20,000 small molecule compounds were screened at a concentration of 10 μM. The selected condition allowed for identification of both inhibitors and potentiators. Selected compounds either increased or decreased the rubidium responses by more than 15% when compared to the control. A subset of the compounds were selected and validated for both potency and specificity.
KCNQ2 screen—HEK 293 cells stably expressing rat KCNQ2 were resuspended in DMEM/F12 medium and plated at a density of 4×10^4/well in poly-L-Lysine coated 96-well plates. Cells were then incubated at 37° C. with 5% CO2 overnight. 30 μl/well DMEM/F12 medium containing 30 mM RbCl was added to the cells the next day, followed by incubation for an additional 3 hours. Cell plating and reagent dispensing were done using a Multidrop 384 dispenser (Thermo Electron Corporation).
Compound addition and Rb^+ efflux assay were programmed and performed on a Cybi-Well™ system and Tekbench liquid handling system (Tekcel Inc., Hopkinton, Mass.), respectively. […] Rb^+ concentrations in both supernatant and cell lysates were measured by atomic absorption spectrometry using an ICR8000 instrument (Aurora Biomed, Vancouver, Canada).

T1 sequence (Q9NZV8 whole entry): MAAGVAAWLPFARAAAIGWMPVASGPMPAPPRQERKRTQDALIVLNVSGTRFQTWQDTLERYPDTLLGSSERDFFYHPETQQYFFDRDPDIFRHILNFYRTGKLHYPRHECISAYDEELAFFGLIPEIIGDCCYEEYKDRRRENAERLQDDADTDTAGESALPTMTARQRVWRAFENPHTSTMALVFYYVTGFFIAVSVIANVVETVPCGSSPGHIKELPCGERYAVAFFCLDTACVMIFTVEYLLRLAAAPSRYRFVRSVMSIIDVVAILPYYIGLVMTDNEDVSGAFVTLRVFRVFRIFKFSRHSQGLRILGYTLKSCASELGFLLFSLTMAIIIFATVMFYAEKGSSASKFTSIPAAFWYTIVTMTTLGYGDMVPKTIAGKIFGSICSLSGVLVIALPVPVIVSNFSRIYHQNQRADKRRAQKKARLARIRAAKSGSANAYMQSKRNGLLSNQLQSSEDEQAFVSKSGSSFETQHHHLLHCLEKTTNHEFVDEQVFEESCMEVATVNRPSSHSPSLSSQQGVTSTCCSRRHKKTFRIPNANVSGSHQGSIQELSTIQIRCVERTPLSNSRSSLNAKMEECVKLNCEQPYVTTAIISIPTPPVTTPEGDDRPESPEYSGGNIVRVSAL

**Q.** What does the source list for `S=c1ccccn1[O][Zn][O]n1ccccc1=S` [ZnPy, Zinc Pyrithione]?
**A.** potentiation of channel activity [1]: did not potentiate; V1/2 shift caused by ZnPy (KCNQ2(L249A/L275A)): completely abolished the V1/2 shift; folds of current increase (KCNQ2(L249A/L275A); +50 mV, ZnPy): 8.6±2.2 folds; change in V1/2 caused by ZnPy (KCNQ2 L249A): significant reduction on changes in V1/2; potentiation of M-current amplitude (M-current): 1.9 fold; effect on membrane potential (hippocampal neurons): noticeable hyperpolarization of membrane potential; effect on repetitive firing elicited by current injection (hippocampal neurons; 200 pA current injection): immediately abolished the repetitive firing; elevation of KCNQ activity by rubidium efflux (KCNQ2): unusual potency in elevating KCNQ activities
